Data from EP0742220A2, “Esters of boric acid and their use as perfume” (HAARMANN & REIMER GMBH, priority 1995, dated 1996).

Key:
Pseudomonas aeruginosa = assay: microtitre plate test on sterile agar, growth inhibition of gram-negative bacteria; assay type: cell-based; settings: gramnegativen Bakterien (z.B. Pseudomonas aeruginosa); Inkubationszeit 3 Tage, Temperatur 37°C
Procedure: (§1) Sowohl gegenüber gramnegativen Bakterien (z.B. Pseudomonas aeruginosa) als auch grampositiven Bakterien (z.B. Staphylococcus aureus) zeigen die beispielhaft genannten Borate eine hervorragende wachstumshemmende Wirkung, was experimentell durch einen sogenannten Mikrotiterplattentest auf sterilem Agar (Inkubationszeit 3 Tage, Temperatur 37°C) dokumentiert werden konnte.

Staphylococcus aureus = assay: microtitre plate test on sterile agar, growth inhibition of gram-positive bacteria; assay type: cell-based; settings: grampositiven Bakterien (z.B. Staphylococcus aureus); Inkubationszeit 3 Tage, Temperatur 37°C
Procedure: as §1

SMILES	wachstumshemmende Wirkung (Pseudomonas aeruginosa)	wachstumshemmende Wirkung (Staphylococcus aureus)
C=CC(C)(CCC=C(C)C)OB(OC(C)(C=C)CCC=C(C)C)OC(C)(C=C)CCC=C(C)C (centres unmarked) [tris-Linalylborat]	antimikrobiellen Eigenschaften	antimikrobiellen Eigenschaften
CC/C=C\CCOB(OCC/C=C\CC)OCC/C=C\CC [tris-(cis)-3-Hexenylborat]	antimikrobiellen Eigenschaften	antimikrobiellen Eigenschaften
CC(C)=CCC/C(C)=C\COB(OC/C=C(/C)CCC=C(C)C)OC/C=C(/C)CCC=C(C)C [tris-Nerylborat]	antimikrobiellen Eigenschaften	antimikrobiellen Eigenschaften
C=CCCCCCCCCCOB(OCCCCCCCCCC=C)OCCCCCCCCCC=C [tris-Undecenylborat]	antimikrobiellen Eigenschaften	antimikrobiellen Eigenschaften
CC(C)=CCC/C(C)=C/COB(OC/C=C(\C)CCC=C(C)C)OC/C=C(\C)CCC=C(C)C [tris-Geranylborat]	antimikrobiellen Eigenschaften	antimikrobiellen Eigenschaften
c1ccc(CCOB(OCCc2ccccc2)OCCc2ccccc2)cc1 [tris-Phenylethylborat]	antimikrobiellen Eigenschaften	antimikrobiellen Eigenschaften
CC(CC=O)CCCC(C)(C)OB(OC(C)(C)CCCC(C)CC=O)OC(C)(C)CCCC(C)CC=O (centres unmarked) [tris-Hydroxycitronellalborat]	antimikrobiellen Eigenschaften	antimikrobiellen Eigenschaften
